Experimental data published in PubChem BioAssay AID2060895 (Molecular Pharmacology Branch, DTP, NCI, 2025).
pIC50: −log10 of the molar value. One block for each compound: values may come before it.

Tested on: PDC 899932-113-R3-J6 complex spheroid viability
Test: Anticancer human tumor 899932-113-R3-J6-PDC patient-derived melanoma cell line growth inhibition [RAS]
Details: for pIC50: curve of first compound; for viability, T/C: stronger effect = lower value
Method in brief: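 Agents were tested in combination matrices in half-log decrements from a top concentration at or near clinical Cmax (10 microM if undetermined). Targets were multi-cell spheroids of tumour lines plus HUVEC and MSC stromal cells.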

[1] = second compound 0.000949 µM, first compound 0.0316 µM
[2] = second compound 0.000949 µM, first compound 0.1 µM
[3] = second compound 0.000949 µM, first compound 0.316 µM
[4] = second compound 0.000949 µM, first compound 1 µM
[5] = second compound 0.000949 µM, first compound 3.16 µM
[6] = second compound 0.000949 µM, first compound 10 µM
[7] = second compound 0.003 µM, first compound 0.0316 µM
[8] = second compound 0.003 µM, first compound 0.1 µM
[9] = second compound 0.003 µM, first compound 0.316 µM
[10] = second compound 0.003 µM, first compound 1 µM
[11] = second compound 0.003 µM, first compound 3.16 µM
[12] = second compound 0.003 µM, first compound 10 µM
[13] = second compound 0.00949 µM, first compound 0.0316 µM
[14] = second compound 0.00949 µM, first compound 0.1 µM
[15] = second compound 0.00949 µM, first compound 0.316 µM
[16] = second compound 0.00949 µM, first compound 1 µM
[17] = second compound 0.00949 µM, first compound 3.16 µM
[18] = second compound 0.00949 µM, first compound 10 µM
[19] = second compound 0.03 µM, first compound 0.0316 µM
[20] = second compound 0.03 µM, first compound 0.1 µM
[21] = second compound 0.03 µM, first compound 0.316 µM
[22] = second compound 0.03 µM, first compound 1 µM
[23] = second compound 0.03 µM, first compound 3.16 µM
[24] = second compound 0.03 µM, first compound 10 µM
[25] = second compound 0.0949 µM, first compound 0.0316 µM
[26] = second compound 0.0949 µM, first compound 0.1 µM
[27] = second compound 0.0949 µM, first compound 0.316 µM
[28] = second compound 0.0949 µM, first compound 1 µM
[29] = second compound 0.0949 µM, first compound 3.16 µM
[30] = second compound 0.0949 µM, first compound 10 µM
[31] = second compound 0.3 µM, first compound 0.0316 µM
[32] = second compound 0.3 µM, first compound 0.1 µM
[33] = second compound 0.3 µM, first compound 0.316 µM
[34] = second compound 0.3 µM, first compound 1 µM
[35] = second compound 0.3 µM, first compound 3.16 µM
[36] = second compound 0.3 µM, first compound 10 µM
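Wherever viability, T/C is given: spheroids exposed to agents for seven days before readout; 100% = DMSO vehicle control wells.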

- pIC50 (second compound 0.000949 µM): 6.62
- pIC50 (second compound 0.003 µM): > 7.50
- pIC50 (second compound 0.00949 µM): > 7.50
- pIC50 (second compound 0.03 µM): > 7.50
- pIC50 (second compound 0.0949 µM): > 7.50
- pIC50 (second compound 0.3 µM): > 7.50
SMILES: CC1(O)CCCC1n1c(=O)c(C(F)F)cc2cnc(NC3CCN(S(C)(=O)=O)CC3)nc21 (stereo not drawn) + CCn1c(-c2cc(N3CCN(C)CC3)cnc2C(C)OC)c2c3cc(ccc31)-c1csc(n1)CC(NC(=O)C1CC1C)C(=O)N1CCCC(N1)C(=O)OCC(C)(C)C2
- viability, T/C [1]: 77.9%
- viability, T/C [2]: 54.2%
- viability, T/C [3]: 49.5%
- viability, T/C [4]: 39.3%
- viability, T/C [5]: 37.1%
- viability, T/C [6]: 27.2%
- viability, T/C [7]: 41.5%
- viability, T/C [8]: 33%
- viability, T/C [9]: 27.5%
- viability, T/C [10]: 25.6%
- viability, T/C [11]: 26.6%
- viability, T/C [12]: 14.1%
- viability, T/C [13]: 4.88%
- viability, T/C [14]: 6.46%
- viability, T/C [15]: 7.99%
- viability, T/C [16]: 9.02%
- viability, T/C [17]: 8.75%
- viability, T/C [18]: 4.7%
- viability, T/C [19]: 2.99%
- viability, T/C [20]: 2.96%
- viability, T/C [21]: 3.21%
- viability, T/C [22]: 3.04%
- viability, T/C [23]: 3.2%
- viability, T/C [24]: 1.24%
- viability, T/C [25]: 2.41%
- viability, T/C [26]: 2.7%
- viability, T/C [27]: 2.57%
- viability, T/C [28]: 3.02%
- viability, T/C [29]: 2.41%
- viability, T/C [30]: 0.82%
- viability, T/C [31]: 1.98%
- viability, T/C [32]: 2.13%
- viability, T/C [33]: 2.07%
- viability, T/C [34]: 1.97%
- viability, T/C [35]: 2.39%
- viability, T/C [36]: 0.63%

- pIC50 (second compound 0.000949 µM): 8.09
- pIC50 (second compound 0.003 µM): 8.12
- pIC50 (second compound 0.00949 µM): 8.08
- pIC50 (second compound 0.03 µM): 8.17
- pIC50 (second compound 0.0949 µM): 8.16
- pIC50 (second compound 0.3 µM): 8.33
SMILES: O=C(c1ccc(F)c(F)c1Nc1ccc(I)cc1F)N1CC(O)([C@@H]2CCCCN2)C1 + CCn1c(-c2cccnc2C(C)OC)c2c3cc(ccc31)N1CCOC(CC(NC(=O)C(C(C)C)N(C)C(=O)C3(F)CCN(C(=O)C#CC(C)(C)N(C)C)CC3)C(=O)N3CCCC(N3)C(=O)OCC(C)(C)C2)C1
- viability, T/C (second compound 0.000949 µM, first compound 0.00316 µM): 72.5%
- viability, T/C (second compound 0.000949 µM, first compound 0.01 µM): 45.1%
- viability, T/C [1]: 4.63%
- viability, T/C [2]: 3.49%
- viability, T/C [3]: 1.64%
- viability, T/C [4]: 0.82%
- viability, T/C (second compound 0.003 µM, first compound 0.00316 µM): 72.3%
- viability, T/C (second compound 0.003 µM, first compound 0.01 µM): 43.3%
- viability, T/C [7]: 4.76%
- viability, T/C [8]: 3.09%
- viability, T/C [9]: 1.48%
- viability, T/C [10]: 0.53%
- viability, T/C (second compound 0.00949 µM, first compound 0.00316 µM): 72.4%
- viability, T/C (second compound 0.00949 µM, first compound 0.01 µM): 45.5%
- viability, T/C [13]: 5.4%
- viability, T/C [14]: 3.03%
- viability, T/C [15]: 1.85%
- viability, T/C [16]: 0.35%
- viability, T/C (second compound 0.03 µM, first compound 0.00316 µM): 71.6%
- viability, T/C (second compound 0.03 µM, first compound 0.01 µM): 38.9%
- viability, T/C [19]: 5.26%
- viability, T/C [20]: 3.43%
- viability, T/C [21]: 1.55%
- viability, T/C [22]: 0.48%
- viability, T/C (second compound 0.0949 µM, first compound 0.00316 µM): 73%
- viability, T/C (second compound 0.0949 µM, first compound 0.01 µM): 38.8%
- viability, T/C [25]: 4.74%
- viability, T/C [26]: 2.54%
- viability, T/C [27]: 1.48%
- viability, T/C [28]: 0.61%
- viability, T/C (second compound 0.3 µM, first compound 0.00316 µM): 60.2%
- viability, T/C (second compound 0.3 µM, first compound 0.01 µM): 29.6%
- viability, T/C [31]: 3.92%
- viability, T/C [32]: 2.9%
- viability, T/C [33]: 0.95%
- viability, T/C [34]: 0.52%

- pIC50 (second compound 0.000949 µM): 5.43
- pIC50 (second compound 0.003 µM): 5.43
- pIC50 (second compound 0.00949 µM): 5.55
- pIC50 (second compound 0.03 µM): 5.46
- pIC50 (second compound 0.0949 µM): 5.57
- pIC50 (second compound 0.3 µM): 5.47
SMILES: CC1(O)CCCC1n1c(=O)c(C(F)F)cc2cnc(NC3CCN(S(C)(=O)=O)CC3)nc21 (stereo not drawn) + CCn1c(-c2cccnc2C(C)OC)c2c3cc(ccc31)N1CCOC(CC(NC(=O)C(C(C)C)N(C)C(=O)C3(F)CCN(C(=O)C#CC(C)(C)N(C)C)CC3)C(=O)N3CCCC(N3)C(=O)OCC(C)(C)C2)C1
- viability, T/C [1]: 98.1%
- viability, T/C [2]: 86.7%
- viability, T/C [3]: 72.3%
- viability, T/C [4]: 68.8%
- viability, T/C [5]: 56.8%
- viability, T/C [6]: 33.6%
- viability, T/C [7]: 99.8%
- viability, T/C [8]: 83%
- viability, T/C [9]: 71.6%
- viability, T/C [10]: 69.7%
- viability, T/C [11]: 59%
- viability, T/C [12]: 32.3%
- viability, T/C [13]: 107%
- viability, T/C [14]: 84.5%
- viability, T/C [15]: 69.7%
- viability, T/C [16]: 63.4%
- viability, T/C [17]: 55.9%
- viability, T/C [18]: 32.9%
- viability, T/C [19]: 110%
- viability, T/C [20]: 79.9%
- viability, T/C [21]: 69.6%
- viability, T/C [22]: 70.1%
- viability, T/C [23]: 59.7%
- viability, T/C [24]: 32.3%
- viability, T/C [25]: 94%
- viability, T/C [26]: 80.2%
- viability, T/C [27]: 66.3%
- viability, T/C [28]: 64.8%
- viability, T/C [29]: 55.6%
- viability, T/C [30]: 27%
- viability, T/C [31]: 88.5%
- viability, T/C [32]: 77.8%
- viability, T/C [33]: 69.3%
- viability, T/C [34]: 63.7%
- viability, T/C [35]: 59.6%
- viability, T/C [36]: 23.1%

- pIC50 (second compound 0.000949 µM): 6.89
- pIC50 (second compound 0.003 µM): > 7.50
- pIC50 (second compound 0.00949 µM): > 7.50
- pIC50 (second compound 0.03 µM): > 7.50
- pIC50 (second compound 0.0949 µM): > 7.50
- pIC50 (second compound 0.3 µM): > 7.50
SMILES: CC(Nc1ccc2c(c1)OCCn1cc(N3C(=O)OCC3C(F)F)nc1-2)C(N)=O (stereo not drawn) + CCn1c(-c2cc(N3CCN(C)CC3)cnc2C(C)OC)c2c3cc(ccc31)-c1csc(n1)CC(NC(=O)C1CC1C)C(=O)N1CCCC(N1)C(=O)OCC(C)(C)C2
- viability, T/C [1]: 64.5%
- viability, T/C [2]: 49.2%
- viability, T/C [3]: 39.7%
- viability, T/C [4]: 38.6%
- viability, T/C [5]: 29.7%
- viability, T/C [6]: 19.4%
- viability, T/C [7]: 26.1%
- viability, T/C [8]: 19.6%
- viability, T/C [9]: 15.7%
- viability, T/C [10]: 11.4%
- viability, T/C [11]: 9.07%
- viability, T/C [12]: 7.98%
- viability, T/C [13]: 2.72%
- viability, T/C [14]: 1.99%
- viability, T/C [15]: 1.32%
- viability, T/C [16]: 1.55%
- viability, T/C [17]: 0.87%
- viability, T/C [18]: 0.68%
- viability, T/C [19]: 2.18%
- viability, T/C [20]: 1.47%
- viability, T/C [21]: 0.93%
- viability, T/C [22]: 0.68%
- viability, T/C [23]: 0.45%
- viability, T/C [24]: 0.32%
- viability, T/C [25]: 1.46%
- viability, T/C [26]: 1.18%
- viability, T/C [27]: 0.72%
- viability, T/C [28]: 0.45%
- viability, T/C [29]: 0.31%
- viability, T/C [30]: 0.62%
- viability, T/C [31]: 1.36%
- viability, T/C [32]: 0.73%
- viability, T/C [33]: 0.51%
- viability, T/C [34]: 0.35%
- viability, T/C [35]: 0.22%
- viability, T/C [36]: 0.52%
